Measurements: patent EP4806903A1, “WHOLE-PROCESS TARGETING POLYPEPTIDE, PHARMACEUTICAL COMPLEX THEREOF, DRUG DELIVERY SYSTEM AND USE THEREOF” (Fudan University, priority 2023, dated 2025)
≈ marks a conversion by molar mass, not a printed value. Where no end group is shown, it is not given here. [ ]: non-standard residue; d: D form.

How the values were obtained:
[1] = Saturation solubility in PBS; type: physicochemical; conditions: aqueous buffer, PBS pH 7.4, 37°C, calculated based on DOX
Protocol: The mixture was incubated at 37°C for 24 hours, then filtered through a membrane of 0.22 µm. The filtrates were subsequently diluted 10-fold and 20-fold, respectively, and the concentration of DOX was measured.

Tumor cells U87 = assay: Intracellular DOX detection in U87 cells; type: cell-based; conditions: 4 hours, 37°C
Protocol: Tumor cells U87 in the logarithmic growth phase and macrophages RAW264.7, both cultured as monolayers, were detached from the culture dishes by digestion with 0.25% trypsin. The single-cell suspensions were prepared in DMEM medium supplemented with 10% fetal bovine serum. Each well of a 6-well plate was seeded with 5 × 10^5 cells in a volume of 2 mL per well. The plates were then transferred to a CO2 incubator and cultured overnight at 37°C under conditions of 5% CO2 and saturated humidity. After overnight incubation, the culture medium was wholly aspirated from each well. DOX, pHA-AHX-VAP-DOX, and pHA-AOnHX-VAP-DOX (n = 1, 2, 3, 5) solutions were added to the wells, and the cells were incubated at 37°C for 4 hours. The supernatant was then discarded. Following cell collection by trypsinization, the cells were washed three times with PBS and counted. After the final wash, any remaining supernatant was wholly removed. To the cell pellet, acidified methanol (Vmethanol : Vmethanoic acid = 98:2) was added, and the cells were subjected to sonication. After centrifugation at 10,000 rpm for 10 minutes, the supernatant was collected and analyzed for DOX concentration.

[2] = Maximum tolerated dose study; design: species or system Male Balb/c mice; conditions: mouse, in vivo, iv; tail vein, 14 days monitoring; dose at which no mice died; expressed as DOX
Protocol: The body weight changes of the mice were recorded daily (relative body weight change = daily body weight / initial body weight), with continuous monitoring for 14 days to observe whether any mice died.

U87 orthotopic glioma = assay: In vivo pharmacodynamic study, survival of U87 orthotopic glioma mice; design: species or system nude mice; conditions: single dose of DOX 1 mg/kg, intravenous, every other day from day 5
Protocol: Approximately 20 g nude mice were anesthetized and fixed onto a stereotaxic apparatus. Orthotopic glioma mouse model was established by injecting 5 µL of U87 cell suspension (5×10^5 cells) with microsyringe into the striatum of the mice (0.6 mm anteroposterior to the bregma, 1.8 mm lateral to the midline, and 3 mm deep). On day 5 after tumor implantation, the mice were randomly divided into four groups, with 10 mice per group.

GRP78 protein [3] = assay: Western blot of GRP78 protein on the cell membrane of U87 cells; type: cell-based
Protocol: After cells were subjected to various treatments, the culture medium was removed, and the cells were washed twice with pre-cooled PBS. The cells were then scraped off and collected into an EP tube. Membrane proteins were extracted using a cell membrane protein extraction kit, followed by centrifugation at 12,000 rpm at 4°C to obtain the supernatant, which was stored for later use. The total protein concentration was determined using the BCA assay, after which the sample was mixed with 5× loading buffer at a ratio of 4:1 and heated to denature the proteins. The samples were stored at -20°C for future use. Samples containing approximately 40 µg of protein were subjected to 15% polyacrylamide gel electrophoresis and then transferred onto polyvinylidene fluoride (PVDF) membranes. […]
After U87 cells were treated with free DOX at different concentrations for 48 hours, membrane proteins were extracted and detected using the method described above.
After U87 cells were treated with different concentrations of TMZ for 48 hours, membrane proteins were extracted and detected using the method described above.
After U87 cells were treated with 5 µg/mL TMZ for varying durations, membrane proteins were extracted and analyzed using the method described above.

GRP78 protein [4] = assay: Western blot of GRP78 protein in tumors of orthotopic glioma mice; type: in vivo, nude mice; conditions: TMZ 10 mg/mL by gavage, after 48 hours
in situ glioma = assay: Efficacy of TMZ combined with peptide-DOX complex in in situ glioma; conditions: TMZ 10 mg/kg by gavage Days 3-21; pHA-AO1HX-VAP-DOX equivalent to 3 mg/kg DOX tail vein Days 5-23; n = 10
Protocol: The in situ glioma model was established as above, with the day of modeling set as Day 0. On Days 3, 5, 7, 9, 11, 13, 15, 17, 19, and 21, mice were administered TMZ by gavage at a single dose of 10 mg/kg.

[5] = In vivo distribution in nude mouse model of orthotopic glioma; design: species or system nude mice; conditions: DOX dose 5 mg/kg, tail vein, 30 minutes; compared to free DOX
Protocol: Approximately 22 g nude mice were anesthetized and fixed onto a stereotaxic apparatus. An orthotopic glioma mouse model was established by injecting 5 µL of U87 cell suspension (8×10^5 cells) with microsyringe into the striatum of the mice (0.6 mm anteroposterior to the bregma, 1.8 mm lateral to the midline, and 3 mm ventral to the surface). Ten days after tumor implantation, the mice were administered DOX (5 mg/kg) or pHA-AOnHX-VAP-DOX (n = 1, 2, 3, 5; DOX dose: 5 mg/kg) via tail vein injection. Thirty minutes later, the mice were anesthetized, perfused with PBS, and the major organs including the brain, heart, liver, spleen, lungs, and kidneys were collected. The tissues from each organ were blotted dry with filter paper and weighed. Then, according to the weight of each organ, a specific volume of isopropanol containing 0.075 M HCl and 10% water was added, followed by homogenization. After overnight incubation at 4°C, the samples were centrifuged, and the supernatants were collected for analysis. […] As depicted in Figure 30, the accumulation of DOX in the heart was reduced by pHA-AOnHX-VAP-DOX (n = 1, 2, 3, 5), while the drug concentration in the blood was increased.

[6] = biological target: glucose-regulated protein GRP78 (Homo sapiens, UniProt P11021); conditions: previously validated by research team; cited from earlier work
Sequence of glucose-regulated protein GRP78 (P11021 19-654): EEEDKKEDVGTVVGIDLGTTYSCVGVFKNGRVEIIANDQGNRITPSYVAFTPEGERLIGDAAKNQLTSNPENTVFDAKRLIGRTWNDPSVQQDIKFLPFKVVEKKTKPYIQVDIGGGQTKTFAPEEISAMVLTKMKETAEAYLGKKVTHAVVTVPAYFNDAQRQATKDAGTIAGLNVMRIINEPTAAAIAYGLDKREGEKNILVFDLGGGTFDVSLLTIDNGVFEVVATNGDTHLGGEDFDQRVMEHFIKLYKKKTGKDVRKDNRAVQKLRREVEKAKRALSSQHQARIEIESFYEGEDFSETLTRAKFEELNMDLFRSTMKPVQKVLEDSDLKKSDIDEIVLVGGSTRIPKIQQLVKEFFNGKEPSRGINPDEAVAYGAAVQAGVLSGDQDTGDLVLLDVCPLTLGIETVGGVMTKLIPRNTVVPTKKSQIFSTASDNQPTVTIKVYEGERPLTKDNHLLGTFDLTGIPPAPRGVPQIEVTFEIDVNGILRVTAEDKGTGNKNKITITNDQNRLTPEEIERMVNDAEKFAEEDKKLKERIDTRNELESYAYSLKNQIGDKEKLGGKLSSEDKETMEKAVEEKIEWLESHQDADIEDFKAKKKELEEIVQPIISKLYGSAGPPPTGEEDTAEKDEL

COc1cccc2c1C(=O)c1c(O)c3c(c(O)c1C2=O)C[C@@](O)(C(=O)CO)C[C@@H]3O[C@H]1C[C@H](N)[C@H](O)[C@H](C)O1 [DOX, doxorubicin]
solubility at 24 h [1]: 220 ± 30 µg/mL (≈ 405 µM)
uptake by U87 cells (intracellular DOX) (Tumor cells U87): higher cellular uptake
MTD at 336 h [2]: ~10 mg/kg
median survival time (U87 orthotopic glioma): 35.5 days
expression of GRP78 protein on the cell membrane surface of U87 cells (GRP78 protein [3]; different concentrations, 48 hours): significantly upregulated

Cn1nnc2c(C(N)=O)ncn2c1=O [TMZ, temozolomide]
time after which GRP78 protein on the cell membrane began to significantly upregulate (GRP78 protein [3]; 5 µg/mL TMZ, varying durations up to 48 hours): 12 h
expression of GRP78 protein in tumor tissue relative to control group (GRP78 protein [4]): 1.45 times
median survival time (in situ glioma): 48 days

COc1cccc2c1C(=O)c1c(O)c3c(c(O)c1C2=O)C[C@@](O)(C(CO)=NNC(=O)CCCCCN1C(=O)CC(SC[C@H](NC(=O)CCOCCOCCNC(=O)c2ccc(O)cc2)C(=O)N2CCC[C@@H]2C(=O)N[C@H](C)C(=O)N[C@@H](C(=O)N[C@H](CCCNC(=N)N)C(=O)N[C@@H](C(=O)N[C@H](CC(N)=O)C(=O)N[C@H](CO)C(=O)O)[C@H](C)O)C(C)C)C1=O)C[C@@H]3O[C@H]1C[C@H](N)[C@H](O)[C@H](C)O1 (stereo partly drawn) [pHA-AO2HX-VAP-DOX]
brain accumulation of DOX [5]: greatest increase

^DVAP: D-type amino acid sequence ^DP^DA^DV^DR^DT^DN^DS, SEQ ID NO: 3 ([dP][dA][dV][dR][dT][dN][dS])
binding affinity to glucose-regulated protein GRP78 [6]: high binding affinity

^LVAP: L-type amino acid sequence SNTRVAP, SEQ ID NO: 1
binding affinity to glucose-regulated protein GRP78 [6]: high binding affinity

^SVAP: D-type amino acid sequence ^DS^DN^DT^DR^DV^DA^DP, SEQ ID NO: 4 (SNTRVAP; all D-amino acids; VARIANT 1..7: note = D type amino acid)
binding affinity to glucose-regulated protein GRP78 [6]: high binding affinity
